Data published in PMC5034277, “High Fructose Diet inducing diabetes rapidly impacts olfactory epithelium and behavior in mice” (Scientific Reports, 2016).

Target: T1, MOR23 (Mus musculus, UniProt Q62007)
T1 construct: gene Or10j5; native full-length receptor in GFP-labelled olfactory sensory neurons of gene-targeted MOR23-IRES-tauEGFP mice, intact epithelium; untagged (IRES reporter)
T1 sequence (Q62007 1-309): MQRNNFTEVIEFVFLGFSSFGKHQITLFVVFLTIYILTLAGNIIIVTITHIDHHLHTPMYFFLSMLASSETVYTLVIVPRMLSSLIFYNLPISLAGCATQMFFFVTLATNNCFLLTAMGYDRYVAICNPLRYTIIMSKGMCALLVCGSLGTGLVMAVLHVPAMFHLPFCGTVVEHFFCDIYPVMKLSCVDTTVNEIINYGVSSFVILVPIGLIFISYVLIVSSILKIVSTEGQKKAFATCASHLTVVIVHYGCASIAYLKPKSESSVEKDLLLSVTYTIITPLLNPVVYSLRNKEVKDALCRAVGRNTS
Assay: perforated patch-clamp of dendritic knob, peak transduction current, Hill fit
Type: cell-based
Conditions: neurons of control-diet mice; holding -67 mV; Ringer pH 7.6; pressure-delivered odorant; whole-neuron transduction read-out; read-out: K1/2

EC50: 3 ± 1 µM
SMILES: CC(C)(O)CCCC1=CCC(C=O)CC1 (stereo not shown) [Lyral]
